Values quoted from earlier work in patent US11980701B2, “Joint implant with constant and continuous release of therapeutic agent” (Diffusion RX, Inc., priority 2021, dated 2024).

Key:
[1] = test system: articular joint pain/inflammation; conditions: known treatments
[2] = test system: cartilage; conditions: at low doses

| SMILES | length of effectiveness (FIG. 5A) [1] | cartilage effect in in vivo studies [2] |
| --- | --- | --- |
| C[C@]12CCC(=O)C=C1CC[C@@H]1[C@@H]2C(=O)C[C@@]2(C)[C@H]1CC[C@]2(O)C(=O)CO [cortisone shot, cortisone] | six to twelve |  |
| C[C@]12CCC(=O)C=C1CC[C@@H]1[C@@H]2[C@@H](O)C[C@@]2(C)[C@H]1CC[C@]2(O)C(=O)CO [hydrocortisone] |  | significant cartilage protection |
| C[C@]12C=CC(=O)C=C1CC[C@H]1[C@@H]3C[C@@H](O)[C@](O)(C(=O)CO)[C@@]3(C)C[C@H](O)[C@@]12F [triamcinolone] |  | significant cartilage protection |
